Assay: Particle size distribution before and after encapsulation
Assay type: physicochemical
Conditions: FIG. 6A, non-encapsulated
From the text: FIGS. 6A-6B show charts of the particle size distribution of TAED. […] Upon encapsulation, approximately 50% of the particles are distributed in the particle size range of 1 and 2 microns. This information also confirms the TAED is coated with the nonionic amphiphilic graft copolymer (PLMA-g-PEG).

- particle size (majority of particles): 20-30 microns
Structure (SMILES): CC(=O)N(CCN(C(C)=O)C(C)=O)C(C)=O [TAED, tetraacetylethylene-diamine]

— US10952431B2, “Releasable encapsulation compositions” (Battelle Memorial Institute, priority 2016, dated 2021)
